Source: US20100041597A1, “PEPTIDES TARGETED TO PROTEIN KINASE C ISOFORMS AND USES THEREOF” (priority 2005, published 2010)

How the values were obtained:
[1] = In vitro toxicity test (fluorimetric DNA assay, Hoechst); assay type: cell-based, human; details: human, IMR-32 neuroblastoma cells, with pinocytic endocytosis reagent, read-out: % survival
Method: (§1) In vitro cytotoxicity testing of the peptides PRE 3, PRE 4 and PRE 5 (see Table 3) was conducted following the general protocol outlined below (modified from “Fluorimetric DNA assay for cell growth estimation” Rao J, Otto W., Analytical Biochem. 207:186-192, 1992).
(§2) The assay was performed in 96 well plates, with 3,000 IMR-32 neuroblastoma cells seeded per well and 8 replicas were performed per treatment. The cells were pre-treated with either plain medium and a pinocytic endocytosis reagent (Molecular Probes) or medium containing the PRE under evaluation and the pinocytic endocytosis reagent. The cells were allowed to grow under conventional conditions for 3 days. The DNA content of each well was assessed at 24, 48 and 72 hours using Hoechst reagent according to standard procedures. The fluorescence intensity per well was measured using the plate reader “CytoFluor 2350” from Millipore. Excitation was 360 nm and emission was 460 nm. The number of cells is directly correlated to the DNA content.
(§3) The results are shown in Tables 11-13 as the average relative fluorescence intensity measured for the 8 replica wells, as well as the percentage of survival as compared with matching untreated controls.

[2] = test system: IMR-32 neuroblastoma cells; assay: as above; assay type: cell-based, human; details: with pinocytic endocytosis reagent
Method: as §1, §2, §3

PKC-βI = PKC-βI (Homo sapiens, UniProt P05771); assay: In vitro competition with anti-PKC-βI antibody, Protocol B, IMR-32 cells; assay type: binding; set-up: PRE 3 and PRE 4 in IMR-32 Neuroblastoma Cells: Protocol B; endogenous in cells; host or cells: IMR-32; details: PKC-βI; for Band Intensity: control band intensity 170.5, Table 9
Chain of PKC-βI (P05771 whole entry): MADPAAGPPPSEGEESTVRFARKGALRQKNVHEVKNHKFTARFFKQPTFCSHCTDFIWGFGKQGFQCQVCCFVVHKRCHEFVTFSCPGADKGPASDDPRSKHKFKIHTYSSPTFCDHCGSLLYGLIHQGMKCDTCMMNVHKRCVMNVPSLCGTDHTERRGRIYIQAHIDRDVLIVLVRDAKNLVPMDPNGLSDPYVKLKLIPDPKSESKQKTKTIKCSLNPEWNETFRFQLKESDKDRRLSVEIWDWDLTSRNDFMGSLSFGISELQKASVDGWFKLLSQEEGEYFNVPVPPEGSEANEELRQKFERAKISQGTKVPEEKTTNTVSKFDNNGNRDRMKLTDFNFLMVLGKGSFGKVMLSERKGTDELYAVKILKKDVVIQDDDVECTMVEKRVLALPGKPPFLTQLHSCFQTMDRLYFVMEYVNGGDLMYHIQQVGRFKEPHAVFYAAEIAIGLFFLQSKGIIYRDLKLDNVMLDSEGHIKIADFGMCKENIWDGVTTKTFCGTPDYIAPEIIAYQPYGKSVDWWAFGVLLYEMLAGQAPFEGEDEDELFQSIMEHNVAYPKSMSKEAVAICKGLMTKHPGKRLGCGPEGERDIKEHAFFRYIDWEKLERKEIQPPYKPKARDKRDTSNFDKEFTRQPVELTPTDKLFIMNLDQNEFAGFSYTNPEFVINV
Method: The ability of the peptides PRE 2 and PRE 3 (see Table 3) to interfere with the binding of a PKC-α-specific polyclonal antibody (Santa Cruz Biotechnology, Inc.) to PKC-α was determined using a modified version of the protocol outlined above in which the test peptide was added directly to the cell extract prior to electrophoresis at a concentration of either 5× or 15× the concentration of the protein applied to each well of the gel for the Western blots (20 μg).
(§4) Peptides PRE 3 and PRE 4 (see Table 3) were tested for their ability to interfere with the binding of isoform-specific polyclonal antibodies (Santa Cruz Biotechnology, Inc.) to PKC-α, PKC-βI or PKC-βII using the general protocol described in Example 3.

PKC-α [3] = target: T1, PKC-α (Homo sapiens, UniProt P17252); assay: Subcellular localisation of PKC-α in IMR-32 cells; assay type: cell-based; set-up: subcellular localisation of endogenous PKC-α in IMR-32 cells; endogenous in cells; host or cells: IMR-32; details: 10 mg/ml, pinocytic endocytosis
Method: Peptides PRE 3 or PRE 4 (10 mg/ml) were introduced into human neuroblastoma cells (IMR-32) by pinocytic endocytosis. The cells were fixed and stained with rabbit PKC-A primary antibody and anti-rabbit Alexa-488 or Alexa-800 secondary antibody.
In most of the cells PKC-α can be seen to be located in the cytoplasm, around the nucleus and at the plasma membrane (where it becomes activated).

PKC-α [4] = target: T1, PKC-α; assay: In vitro competition with anti-PKC-α antibody on blotted cell lysate, Protocol A, IMR-32 cells; assay type: binding; set-up: subcellular localisation of endogenous PKC-α in IMR-32 cells; endogenous in cells; host or cells: IMR-32
Method: The ability of the peptides to interfere with the binding of a PKC-α-specific monoclonal antibody to PKC-α was determined using the following protocol.
Cell lysates from either IMR-32 (human neuroblastoma) cells or C6Cx43 cells (rat glioma transfected cells overexpressing connexin 43) were obtained using standard protocols and the proteins of the lysate were separated by SDS PAGE electrophoresis and electrotransferred onto a nitrocellulose membrane. […] A primary polyclonal antibody specific for PKC-α (Santa Cruz Biotechnology, Inc., CA) was then added (15 μg/ml) and the membrane incubated for a further 45 minutes. Finally, the primary antibody was detected with a secondary antibody conjugated to alkaline phosphatase using standard procedures. The intensity of the band corresponding to PKC-α was assessed by scanning and densitometry using the Gel-Pro software (Media Cybernetics) to obtain relative band intensities (average of 3 replicas). Control assays were conducted as described above except that blocking buffer without peptide was used.
The results are expressed as relative band intensity and as a percentage of the intensity of the corresponding band in the control assay (“Relative intensity (%)”). “% inhibition” relates to the percentage of the PKC-α band that is inaccessible to the antibody.

PKC-βII = PKC-βII (Homo sapiens, UniProt P05771); assay: In vitro competition with anti-PKC-βII antibody, Protocol B, IMR-32 cells; assay type: binding; set-up: PRE 3 and PRE 4 in IMR-32 Neuroblastoma Cells: Protocol B; endogenous in cells; host or cells: IMR-32; details: PKC-βII; for Band Intensity: control band intensity 98.6, Table 9
Chain of PKC-βII (P05771 1-673 isoform P05771-2): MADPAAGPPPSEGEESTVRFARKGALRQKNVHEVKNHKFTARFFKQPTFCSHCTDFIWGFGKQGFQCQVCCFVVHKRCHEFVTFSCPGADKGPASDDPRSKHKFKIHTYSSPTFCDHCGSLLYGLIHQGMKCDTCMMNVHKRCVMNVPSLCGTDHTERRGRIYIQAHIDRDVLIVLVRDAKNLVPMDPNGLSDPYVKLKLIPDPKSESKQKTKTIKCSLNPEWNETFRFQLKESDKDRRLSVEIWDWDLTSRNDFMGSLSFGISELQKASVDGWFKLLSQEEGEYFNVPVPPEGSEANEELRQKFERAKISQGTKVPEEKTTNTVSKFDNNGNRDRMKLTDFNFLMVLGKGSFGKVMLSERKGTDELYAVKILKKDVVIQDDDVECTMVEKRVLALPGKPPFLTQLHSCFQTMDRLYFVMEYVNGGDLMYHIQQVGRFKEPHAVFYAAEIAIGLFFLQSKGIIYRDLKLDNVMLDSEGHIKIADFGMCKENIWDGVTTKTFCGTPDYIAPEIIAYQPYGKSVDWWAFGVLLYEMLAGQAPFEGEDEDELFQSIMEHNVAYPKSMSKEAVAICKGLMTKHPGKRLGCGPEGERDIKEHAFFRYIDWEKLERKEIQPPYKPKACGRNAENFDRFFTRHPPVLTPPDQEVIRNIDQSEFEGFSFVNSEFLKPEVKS
Method: as §4

[5] = 100 μg, Table 9, read-out: Relative Intensity (%)
[6] = 200 μg, Table 9, read-out: Relative Intensity (%)
[7] = 300 μg, Table 9, read-out: Relative Intensity (%)

inhibition at 0.1 mg (PKC-βI; 100 μg, Table 9): 100%
remaining activity at 0.1 mg (PKC-βI; [5]): 0%
Band Intensity (PKC-βI; 100 μg): 0.0
inhibition at 0.2 mg (PKC-βI; 200 μg, Table 9): 100%
remaining activity at 0.2 mg (PKC-βI; [6]): 0%
Band Intensity (PKC-βI; 200 μg): 0.0
inhibition at 0.3 mg (PKC-βI; 300 μg, Table 9): 100%
remaining activity at 0.3 mg (PKC-βI; [7]): 0%
Band Intensity (PKC-βI; 300 μg): 0.0
Band Intensity (PKC-α [4]; 75 μg, IMR-32 Cells, Table 5): 0.889
inhibition at 0.075 mg (PKC-α [4]; 75 μg, IMR-32 Cells, Table 5): 0.7%
remaining activity at 0.075 mg (PKC-α [4]; 75 μg, IMR-32 Cells, Table 5, read-out: Relative Intensity (%)): 99.3%
Band Intensity (PKC-α [4]; 300 μg, IMR-32 Cells, Table 5): 0.922
inhibition at 0.3 mg (PKC-α [4]; 300 μg, IMR-32 Cells, Table 5): 0%
remaining activity at 0.3 mg (PKC-α [4]; 300 μg, IMR-32 Cells, Table 5, read-out: Relative Intensity (%)): 103%
Band Intensity (PKC-α [4]; 600 μg, IMR-32 Cells, Table 5): 0.888
inhibition at 0.6 mg (PKC-α [4]; 600 μg, IMR-32 Cells, Table 5): 0%
remaining activity at 0.6 mg (PKC-α [4]; 600 μg, IMR-32 Cells, Table 5, read-out: Relative Intensity (%)): 99.2%
Band Intensity (PKC-α [4]; 3.75 mg, IMR-32 Cells, Table 5): 0.600
remaining activity at 3.75 mg (PKC-α [4]; 3.75 mg, IMR-32 Cells, Table 5, read-out: Relative Intensity (%)): 102%
Band Intensity (PKC-α [4]; 5.25 mg, IMR-32 Cells, Table 5): 0.603
remaining activity at 5.25 mg (PKC-α [4]; 5.25 mg, IMR-32 Cells, Table 5, read-out: Relative Intensity (%)): 102%
Band Intensity (PKC-α [4]; 7.5 mg, IMR-32 Cells, Table 5): 0.609
inhibition at 7.5 mg (PKC-α [4]; 7.5 mg, IMR-32 Cells, Table 5): 0%
remaining activity at 7.5 mg (PKC-α [4]; 7.5 mg, IMR-32 Cells, Table 5, read-out: Relative Intensity (%)): 103%
inhibition at 0.1 mg (PKC-βII; 100 μg, Table 9): 100%
remaining activity at 0.1 mg (PKC-βII; [5]): 0%
Band Intensity (PKC-βII; 100 μg): 0.0
inhibition at 0.2 mg (PKC-βII; 200 μg, Table 9): 100%
remaining activity at 0.2 mg (PKC-βII; [6]): 0%
Band Intensity (PKC-βII; 200 μg): 0.0
inhibition at 0.3 mg (PKC-βII; 300 μg, Table 9): 100%
remaining activity at 0.3 mg (PKC-βII; [7]): 0%
Band Intensity (PKC-βII; 300 μg): 0.0
Substance: Ac-AKGIQEVKGGDAQNLIGISI-NH2 [PRE 3]
viability at 24 h, 2500 µg/mL ([1]; 2.5 mg/ml, 24 h): 127%
viability at 48 h, 2500 µg/mL ([1]; 2.5 mg/ml, 48 h): 150%
viability at 72 h, 2500 µg/mL ([1]; 2.5 mg/ml, 72 h): 123%
viability at 24 h, 10000 µg/mL ([1]; 10 mg/ml, 24 h): 120%
viability at 48 h, 10000 µg/mL ([1]; 10 mg/ml, 48 h): 129%
viability at 72 h, 10000 µg/mL ([1]; 10 mg/ml, 72 h): 117%
AFI (Average fluorescence intensity) ([2]; 2.5 mg/ml, 24 h): 193
AFI (Average fluorescence intensity) ([2]; 2.5 mg/ml, 48 h): 389
AFI (Average fluorescence intensity) ([2]; 2.5 mg/ml, 72 h): 871
AFI (Average fluorescence intensity) ([2]; 10 mg/ml, 24 h): 182
AFI (Average fluorescence intensity) ([2]; 10 mg/ml, 48 h): 334
AFI (Average fluorescence intensity) ([2]; 10 mg/ml, 72 h): 830
effect on subcellular localisation of PKC-α (PKC-α [3]): does not alter the subcellular localisation of PKC-α
effect on antibody binding to PKC-α (PKC-α [4]; Protocol A): did not show an effect on antibody binding
